From article PMC12415923

experiment: Two-fold Williamson etherification: BINOL bis(chloroethoxyethyl ether) (Me/H/iPr-6_2) + BINOL bisphenol (Me/H/iPr-2), 1:1, Cs2CO3 (3.2 equiv); ring closure = phenoxide O-alkylation by alkyl chloride; conditions: the molecule shown is the open-chain precursor; 42-membered ring; MeCN; 9.0 mM; 85.0 °C; 6.0 h

| SMILES | ring closure, isolated yield [%] |
| --- | --- |
| COCOc1c(-c2ccc(OCCOCCCl)cc2)cc2ccccc2c1-c1c(OCOC)c(-c2ccc(OCCOCCOc3c(C(C)C)cc(-c4cc5ccccc5c(-c5c(OCOC)c(-c6cc(C(C)C)c(O)c(C(C)C)c6)cc6ccccc56)c4OCOC)cc3C(C)C)cc2)cc2ccccc12 [(R,S)-HiPr-M2_2 ((R)-H unit, (S)-iPr unit)] | 48.9 |
| COCOc1c(-c2ccc(OCCOCCCl)cc2)cc2ccccc2c1-c1c(OCOC)c(-c2ccc(OCCOCCOc3c(C(C)C)cc(-c4cc5ccccc5c(-c5c(OCOC)c(-c6cc(C(C)C)c(O)c(C(C)C)c6)cc6ccccc56)c4OCOC)cc3C(C)C)cc2)cc2ccccc12 [(S,S)-HiPr-M2_2] | 72.7 |
| COCOc1c(-c2ccc(O)cc2)cc2ccccc2c1-c1c(OCOC)c(-c2ccc(OCCOCCOc3ccc(-c4cc5ccccc5c(-c5c(OCOC)c(-c6ccc(OCCOCCCl)cc6)cc6ccccc56)c4OCOC)cc3)cc2)cc2ccccc12 [H-M2_2] | 77.8 |
| COCOc1c(-c2cc(C)c(O)c(C)c2)cc2ccccc2c1-c1c(OCOC)c(-c2cc(C)c(OCCOCCOc3c(C)cc(-c4cc5ccccc5c(-c5c(OCOC)c(-c6cc(C)c(OCCOCCCl)c(C)c6)cc6ccccc56)c4OCOC)cc3C)c(C)c2)cc2ccccc12 [Me-M2_2] | 59.4 |
| COCOc1c(-c2cc(C(C)C)c(O)c(C(C)C)c2)cc2ccccc2c1-c1c(OCOC)c(-c2cc(C(C)C)c(OCCOCCOc3c(C(C)C)cc(-c4cc5ccccc5c(-c5c(OCOC)c(-c6cc(C(C)C)c(OCCOCCCl)c(C(C)C)c6)cc6ccccc56)c4OCOC)cc3C(C)C)c(C(C)C)c2)cc2ccccc12 [iPr-M2_2] | 76.5 |

experiment: Two-fold Williamson etherification: 3,3'-bis(4-hydroxyaryl)-BINOL-MOM diol (Me/H/iPr-2) + oligoethylene glycol bistosylate (1 equiv), Cs2CO3 (ca. 2-2.5 equiv); ring closure = phenoxide O-alkylation by tosylate; conditions: the molecule shown is the open-chain precursor; 30-membered ring; MeCN; 1.0 mM; 85.0 °C

| SMILES | ring closure, isolated yield [%] |
| --- | --- |
| COCOc1c(-c2ccc(O)cc2)cc2ccccc2c1-c1c(OCOC)c(-c2ccc(OCCOCCOCCOCCOCCOS(=O)(=O)c3ccc(C)cc3)cc2)cc2ccccc12 [H-M1_5] | 11 |
| COCOc1c(-c2cc(C)c(O)c(C)c2)cc2ccccc2c1-c1c(OCOC)c(-c2cc(C)c(OCCOCCOCCOCCOCCOS(=O)(=O)c3ccc(C)cc3)c(C)c2)cc2ccccc12 [Me-M1_5] | 21.1 |
| COCOc1c(-c2cc(C(C)C)c(O)c(C(C)C)c2)cc2ccccc2c1-c1c(OCOC)c(-c2cc(C(C)C)c(OCCOCCOCCOCCOCCOS(=O)(=O)c3ccc(C)cc3)c(C(C)C)c2)cc2ccccc12 [iPr-M1_5] | 19.6 |

same assay, conditions: the molecule shown is the open-chain precursor; 33-membered ring; MeCN; 1.0 mM; 85.0 °C

| SMILES | ring closure, isolated yield [%] |
| --- | --- |
| COCOc1c(-c2ccc(O)cc2)cc2ccccc2c1-c1c(OCOC)c(-c2ccc(OCCOCCOCCOCCOCCOCCOS(=O)(=O)c3ccc(C)cc3)cc2)cc2ccccc12 [H-M1_6] | 29.7 |
| COCOc1c(-c2cc(C)c(O)c(C)c2)cc2ccccc2c1-c1c(OCOC)c(-c2cc(C)c(OCCOCCOCCOCCOCCOCCOS(=O)(=O)c3ccc(C)cc3)c(C)c2)cc2ccccc12 [Me-M1_6] | 53.7 |
| COCOc1c(-c2cc(C(C)C)c(O)c(C(C)C)c2)cc2ccccc2c1-c1c(OCOC)c(-c2cc(C(C)C)c(OCCOCCOCCOCCOCCOCCOS(=O)(=O)c3ccc(C)cc3)c(C(C)C)c2)cc2ccccc12 [iPr-M1_6] | 41.2 |

same assay, conditions: the molecule shown is the open-chain precursor; 36-membered ring; MeCN; 1.0 mM; 85.0 °C

| SMILES | ring closure, isolated yield [%] |
| --- | --- |
| COCOc1c(-c2ccc(O)cc2)cc2ccccc2c1-c1c(OCOC)c(-c2ccc(OCCOCCOCCOCCOCCOCCOCCOS(=O)(=O)c3ccc(C)cc3)cc2)cc2ccccc12 [H-M1_7] | 32.1 |
| COCOc1c(-c2cc(C)c(O)c(C)c2)cc2ccccc2c1-c1c(OCOC)c(-c2cc(C)c(OCCOCCOCCOCCOCCOCCOCCOS(=O)(=O)c3ccc(C)cc3)c(C)c2)cc2ccccc12 [Me-M1_7] | 75 |
| COCOc1c(-c2cc(C(C)C)c(O)c(C(C)C)c2)cc2ccccc2c1-c1c(OCOC)c(-c2cc(C(C)C)c(OCCOCCOCCOCCOCCOCCOCCOS(=O)(=O)c3ccc(C)cc3)c(C(C)C)c2)cc2ccccc12 [iPr-M1_7] | 45.5 |

same assay, conditions: the molecule shown is the open-chain precursor; 39-membered ring; MeCN; 1.0 mM; 85.0 °C

| SMILES | ring closure, isolated yield [%] |
| --- | --- |
| COCOc1c(-c2ccc(O)cc2)cc2ccccc2c1-c1c(OCOC)c(-c2ccc(OCCOCCOCCOCCOCCOCCOCCOCCOS(=O)(=O)c3ccc(C)cc3)cc2)cc2ccccc12 [H-M1_8] | 40.3 |
| COCOc1c(-c2cc(C)c(O)c(C)c2)cc2ccccc2c1-c1c(OCOC)c(-c2cc(C)c(OCCOCCOCCOCCOCCOCCOCCOCCOS(=O)(=O)c3ccc(C)cc3)c(C)c2)cc2ccccc12 [Me-M1_8] | 38.2 |
| COCOc1c(-c2cc(C(C)C)c(O)c(C(C)C)c2)cc2ccccc2c1-c1c(OCOC)c(-c2cc(C(C)C)c(OCCOCCOCCOCCOCCOCCOCCOCCOS(=O)(=O)c3ccc(C)cc3)c(C(C)C)c2)cc2ccccc12 [iPr-M1_8] | 53.3 |
